{
  "source": "patent US12708106B2",
  "about": "(priority 2019, dated 2026)",
  "test_system": "Eimeria and Clostridium perfringens",
  "format": "in vivo, male broilers",
  "key": {"[1]": {"details": "T4: 10 ppm (Enradin 8%), Eimeria + Clostridium challenge, mean ± SD"}},
  "data": [
    {"substance": "Enramycin", "values": [
      {"measurement": "BWG—Body Weight Gain 1-7 D", "setting": "[1]", "value": "90.95 ± 5.11", "unit": "b g"},
      {"measurement": "FCR (Feed Conversion Ratio) 1-7 D", "setting": "[1]", "value": "1.568 ± 0.123"},
      {"measurement": "BWG—Body Weight Gain 1-14 D", "setting": "T4: 10 ppm, challenged", "value": "413.37 ± 12.89", "unit": "b g"},
      {"measurement": "BWG—Body Weight Gain 1-21 D", "setting": "T4: 10 ppm, challenged", "value": "926.22 ± 23.58", "unit": "b g"},
      {"measurement": "BWG—Body Weight Gain 1-28 D", "setting": "T4: 10 ppm, challenged", "value": "1595.5 ± 42.62", "unit": "b g"},
      {"measurement": "FCR (Feed Conversion Ratio) 1-14 D", "setting": "T4: 10 ppm, challenged", "value": "1.070 ± 0.049"},
      {"measurement": "FCR (Feed Conversion Ratio) 1-21 D", "setting": "T4: 10 ppm, challenged", "value": "1.255 ± 0.036", "unit": "ab"},
      {"measurement": "FCR (Feed Conversion Ratio) 1-28 D", "setting": "T4: 10 ppm, challenged", "value": "1.228 ± 0.024", "unit": "ab"}
    ]}
  ]
}
